Laboratory results from the NIST ThermoML archive (doi:10.1021/je0497698).
Numbers after ± are expanded uncertainties.

Details: Liquid

vapor or sublimation pressure (273.15 K) | vapor or sublimation pressure (283.15 K) | vapor or sublimation pressure (293.15 K) | vapor or sublimation pressure (303.15 K) | vapor or sublimation pressure (313.15 K) | SMILES
816.8 ± 2.2 kPa | 1111.8 ± 2.2 kPa | 1480.2 ± 2.4 kPa | 1930.4 ± 2.5 kPa | 2478 ± 2.8 kPa | FCF [difluoromethane]
587.8 ± 2.1 kPa | 781.2 ± 2.1 kPa | 1020.2 ± 2.2 kPa | 1308.2 ± 2.3 kPa | 1650.8 ± 2.5 kPa | C=CC [propene]
